Assay results taken from US12637461B2, “Compounds for the activation of AMPK” (PFIZER INC., priority 2022, dated 2026).

Target: T1, human AMPK α2β2γ3 (Homo sapiens, UniProt O43741+P54646+Q9UGI9)
T1 construct: expressed in transfected cells; host or cells: HEK293AD cells, MaxCyte bulk electroporation
Experiment: Primary cellular assay: γ3 associated phospho-Thr172 AMPK detection (custom pAMPK Surefire AlphaLISA) in α2β2γ3 bulk transiently transfected HEK293 cells
Format: cell-based
Conditions: activation of human AMPK α2β2γ3 (γ3 pThr172 AMPK signal) in transiently transfected HEK293 cells, 20 minutes compound incubation; for Emax: 20 min, read-out: Assay GMean Asy. Max (%); for EC50: geometric mean EC50, read-out: Assay GMean EC50
Description: Primary Cellular Assay—γ3 Associated Phospho-Thr172 AMPK Detection in α2β2γ3 Bulk Transiently Transfected HEK293 Cells
The cellular potencies of the compounds were evaluated using a custom pAMPK Surefire AlphaLISA designed to assess γ3 associated phospho-Thr172 AMPK and modulation by small molecules in AMPK α2β2γ3 transiently transfected HEK293 cells.
A pAMPK Surefire AlphaLISA (PE-ASLU-PAMPK) assay available through Perkin Elmer was modified to selectively assess γ3 pThr172 AMPK content (as opposed to total pThr172 AMPK) by labeling a γ3 antibody with a CaptSure™ tag and substituting it for the total α1c/α2 AMPK labeled antibodies in the kit. In the modified assay, the overall abundance of γ3 AMPK is recognized by the CaptSure γ3 antibody and the phosphorylated AMPK is recognized by biotinylated pThr172 antibody. Subsequent reactivity with streptavitin donor beads and anti CaptSure conjugated acceptor beads brings the molecules into close proximity. Upon excitation at 680 nm, the donor bead converts ambient oxygen to a more excited singlet state which reacts with the acceptor bead and emits light at 520 to 620 nm. The intensity of the signal is proportional to the level of γ3 associated pThr172 AMPK phosphorylation.
In short, AMPK-α2+β2+γ3 MaxCyte bulk-transfected HEK293AD cells were thawed in growth media (DMEM High glucose+10% FBS) in a collagen-coated T150 flask and the cells were allowed to adhere and grow overnight in a 37° C. incubator. The following day, the cells were harvested and resuspended in plating medium (DMEM Low glucose+10% FBS) at a concentration of 100,000 cells per mL and 50 μL of this cell suspension was added to all wells of a 384-well plate using a Multidrop Combi. The cells were allowed to adhere and grow for 2 days in a 37° C. incubator. On assay day, compounds were diluted in 100% dimethyl sulfoxide (DMSO) in a 11 dose, half log dilution scheme and spotted in the cell plates at 1000× the final concentration. Compound incubations were performed in plating media for 20 minutes. Cells were washed with PBS, lysed and the signal was generated by subsequent additions of RB1 reagent from the kit, 1:1000 CaptSure γ3 labeled antibody in 1× immunoassay buffer, Anti-CaptSure acceptor beads and Streptavitin donor beads at final concentration of […]. The γ3 pThr172 AMPK signal was developed using EnVision™ multilabel reader (Perkin Elmer) using Alphascreen settings. The fluorescence emission was used to calculate the % effect relative to the HPE (30 μM) and ZPE (DMSO). EC50 curves were generated with the ActivityBase software using the XLfit model 205 to determine EC50 and Emax values.
For screening purposes, bulk AMPK-α2+β2+γ3 MaxCyte bulk transfection into HEK293AD cells were generated to support SAR screening as follows.
HEK293AD cells were seeded into 10 flasks at 2.7×10^7 cells per flask. The following day 12 mL of Trypl E dissociation reagent were added to each flask to lift the cells and the cells were then spun at 300×g for 5 minutes. Cells were washed once in MaxCyte EP buffer and then resuspended in MaxCyte EP buffer at 1×10^8 cells per mL. For transfection, 500×10^6 cells in 500 μl MaxCyte EP buffer were placed in a CL1.1 Processing Assembly (electroporation cell) with 1 mg/mL ([…]) of each of the plasmids pcDNA3.1(+)-human AMPK alpha 2, pcDNA3.1(+)-human AMPK beta 2 and pcDNA3.1(+)-human AMPK gamma 3 and the electroporation was carried out on the MaxCyte STX using the HEK293 electroporation protocol. Following electroporation, cells were transferred to a T175 flask containing growth medium (DMEM High glucose+10% FBS) and allowed to recover for 25 minutes, then the cells were resuspended to final volume of 900 mL and distributed into 6XT175 flasks and allowed to adhere and grow overnight in a 37° C. incubator. […]

[1] = geometric mean of the asymptotic max

T1 sequence (P54646 whole entry): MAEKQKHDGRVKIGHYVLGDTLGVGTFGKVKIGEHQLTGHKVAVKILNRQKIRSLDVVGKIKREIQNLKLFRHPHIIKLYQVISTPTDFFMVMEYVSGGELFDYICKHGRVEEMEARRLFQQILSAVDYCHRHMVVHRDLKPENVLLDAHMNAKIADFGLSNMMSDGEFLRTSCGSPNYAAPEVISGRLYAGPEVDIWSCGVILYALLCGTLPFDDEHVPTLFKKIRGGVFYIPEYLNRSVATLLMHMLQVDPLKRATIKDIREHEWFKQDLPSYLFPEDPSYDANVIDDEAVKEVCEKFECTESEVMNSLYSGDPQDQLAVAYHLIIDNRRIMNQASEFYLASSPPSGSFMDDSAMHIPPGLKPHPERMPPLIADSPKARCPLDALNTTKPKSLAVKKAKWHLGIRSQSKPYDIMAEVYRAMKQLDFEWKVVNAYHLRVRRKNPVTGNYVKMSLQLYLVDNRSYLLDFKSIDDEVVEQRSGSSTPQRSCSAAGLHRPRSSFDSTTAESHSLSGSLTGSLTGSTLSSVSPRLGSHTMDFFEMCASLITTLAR
T1 sequence (O43741 whole entry): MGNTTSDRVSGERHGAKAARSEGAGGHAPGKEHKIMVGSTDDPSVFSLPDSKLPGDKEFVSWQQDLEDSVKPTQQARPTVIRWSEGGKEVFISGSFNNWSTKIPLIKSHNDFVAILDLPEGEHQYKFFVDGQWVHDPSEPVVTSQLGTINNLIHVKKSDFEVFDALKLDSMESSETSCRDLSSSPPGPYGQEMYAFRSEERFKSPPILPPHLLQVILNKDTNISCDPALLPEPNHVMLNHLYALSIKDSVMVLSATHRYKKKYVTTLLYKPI
T1 sequence (Q9UGI9 whole entry): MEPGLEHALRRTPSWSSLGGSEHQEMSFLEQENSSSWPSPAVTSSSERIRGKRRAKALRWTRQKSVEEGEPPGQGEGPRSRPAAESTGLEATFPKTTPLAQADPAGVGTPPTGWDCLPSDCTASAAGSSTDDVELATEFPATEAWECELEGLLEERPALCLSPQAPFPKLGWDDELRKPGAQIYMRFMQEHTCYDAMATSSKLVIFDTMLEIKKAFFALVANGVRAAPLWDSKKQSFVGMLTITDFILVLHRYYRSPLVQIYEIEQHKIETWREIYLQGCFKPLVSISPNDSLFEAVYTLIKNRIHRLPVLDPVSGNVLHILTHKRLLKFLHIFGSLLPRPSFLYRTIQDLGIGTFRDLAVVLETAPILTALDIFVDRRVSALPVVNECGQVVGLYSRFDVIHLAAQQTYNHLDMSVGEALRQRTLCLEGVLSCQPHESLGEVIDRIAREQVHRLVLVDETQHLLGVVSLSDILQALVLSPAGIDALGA

In the case of `C[C@]1(c2cccc(Cl)c2F)CN(c2ccccn2)C(=O)c2cnc(NC3CN(C(=O)[C@@H]4C[C@@H]4F)C3)c(F)c21` [Example 5, (4R)-4-(3-chloro-2-fluorophenyl)-5-fluoro-6-({1-[(1S,2S)-2-fluorocyclopropane-1-carbonyl]azetidin-3-yl}amino)-4-methyl-2-(pyridin-2-yl)-3,4-dihydro-2,7-naphthyridin-1(2H)-one], the Emax [1] is reported as 64.9% and the EC50 is reported as 27.7 nM.

In the case of `C[C@]1(c2cccc(Cl)c2F)CN(c2ncccc2F)C(=O)c2cnc(NC3CN(C(=O)[C@@H]4C[C@@H]4F)C3)c(F)c21` [Example 6, (4R)-4-(3-chloro-2-fluorophenyl)-5-fluoro-6-({1-[(1S,2S)-2-fluorocyclopropane-1-carbonyl]azetidin-3-yl}amino)-2-(3-fluoropyridin-2-yl)-4-methyl-3,4-dihydro-2,7-naphthyridin-1(2H)-one], the Emax [1] is reported as 58% and the EC50 is reported as 22.2 nM.

With `Cn1cc(F)c(N2C[C@](C)(c3cccc(Cl)c3F)c3c(cnc(NC4CN(C(=O)C5(O)CCC5)C4)c3F)C2=O)n1` [Example 7, (4R)-4-(3-Chloro-2-fluorophenyl)-5-fluoro-2-(4-fluoro-1-methyl-1H-pyrazol-3-yl)-6-{[1-(1-hydroxycyclobutane-1-carbonyl)azetidin-3-yl]amino}-4-methyl-3,4-dihydro-2,7-naphthyridin-1(2H)-one] the Emax [1] was 123% and the EC50 was 144 nM.

Compound `Cn1cc(F)c(N2C[C@](C)(c3cccc(Cl)c3F)c3c(cnc(NC4CN(C(=O)[C@H]5C[C@@H]5F)C4)c3F)C2=O)n1` [Example 8, (4R)-4-(3-Chloro-2-fluorophenyl)-5-fluoro-6-({1-[(1R,2S)-2-fluorocyclopropane-1-carbonyl]azetidin-3-yl}amino)-2-(4-fluoro-1-methyl-1H-pyrazol-3-yl)-4-methyl-3,4-dihydro-2,7-naphthyridin-1(2H)-one] has an Emax [1] of 58.2% and an EC50 of 63.8 nM.

Work on `CN(C(=O)CN1CC(Nc2ncc3c(c2F)[C@@](C)(c2cccc(Cl)c2F)CN(c2nn(C)cc2F)C3=O)C1)C1CC1` [Example 11, 2-(3-{[(5R)-5-(3-Chloro-2-fluorophenyl)-4-fluoro-7-(4-fluoro-1-methyl-1H-pyrazol-3-yl)-5-methyl-8-oxo-5,6,7,8-tetrahydro-2,7-naphthyridin-3-yl]amino}azetidin-1-yl)-N-cyclopropyl-N-methylacetamide] yielded an Emax [1] of 160% and an EC50 of 22.7 nM.

For `Cn1cc(F)c(N2C[C@](C)(c3cccc(Cl)c3F)c3c(cnc(NC4CN(C(=O)CN5CCCC5)C4)c3F)C2=O)n1` [Example 12, (4R)-4-(3-Chloro-2-fluorophenyl)-5-fluoro-2-(4-fluoro-1-methyl-1H-pyrazol-3-yl)-4-methyl-6-({1-[(pyrrolidin-1-γ1)acetyl]azetidin-3-yl}amino)-3,4-dihydro-2,7-naphthyridin-1(2H)-one], the Emax [1] was 77.9% and the EC50 was 43.5 nM.

For `CC(C)NCC(=O)N1CC(Nc2ncc3c(c2F)[C@@](C)(c2cccc(Cl)c2F)CN(c2nn(C)cc2F)C3=O)C1` [Example 13, (4R)-4-(3-Chloro-2-fluorophenyl)-5-fluoro-2-(4-fluoro-1-methyl-1H-pyrazol-3-yl)-4-methyl-6-[(1-{[(propan-2-γ1)amino]acetyl}azetidin-3-γ1)amino]-3,4-dihydro-2,7-naphthyridin-1(2H)-one], the EC50 was 108 nM and the “Assay GMean Asy. Max (%)” value [1] was 46.2%.

In the case of `C[C@]1(c2cccc(Cl)c2F)CN(c2cc(F)c(CN)cc2F)C(=O)c2cnc(NC3CN(C(=O)[C@@H]4C[C@@H]4F)C3)c(F)c21` [Example 14, (4R)-2-[4-(aminomethyl)-2,5-difluorophenyl]-4-(3-chloro-2-fluorophenyl)-5-fluoro-6-({1-[(1S,2S)-2-fluorocyclopropane-1-carbonyl]azetidin-3-yl}amino)-4-methyl-3,4-dihydro-2,7-naphthyridin-1(2H)-one], the Emax [1] is reported as 69.4% and the EC50 is reported as 33.7 nM.

`C[C@]1(c2cccc(Cl)c2F)CN(c2ccc(N)cn2)C(=O)c2cnc(NC3CN(C(=O)[C@@H]4C[C@@H]4F)C3)c(F)c21` [Example 15, (4R)-2-(5-aminopyridin-2-yl)-4-(3-chloro-2-fluorophenyl)-5-fluoro-6-({1-[(1S,2S)-2-fluorocyclopropane-1-carbonyl]azetidin-3-yl}amino)-4-methyl-3,4-dihydro-2,7-naphthyridin-1(2H)-one] gave an Emax [1] of 61.5% and an EC50 of 31.5 nM.

`C[C@@H](O)c1ccc(N2C[C@](C)(c3cccc(Cl)c3F)c3c(cnc(NC4CN(C(=O)[C@@H]5C[C@@H]5F)C4)c3F)C2=O)nc1` [Example 18, (4R)-4-(3-Chloro-2-fluorophenyl)-5-fluoro-6-({1-[(1S,2S)-2-fluorocyclopropane-1-carbonyl]azetidin-3-yl}amino)-2-{5-[(1R)-1-hydroxyethyl]pyridin-2-yl}-4-methyl-3,4-dihydro-2,7-naphthyridin-1(2H)-one] was tested, and the Emax [1] was 79.2% and the EC50 was 165 nM.

`C[C@]1(c2cccc(Cl)c2F)CN(c2ncccc2F)C(=O)c2cnc(NC3CN(C(N)=O)C3)c(F)c21` [Example 19, 3-{[(5R)-5-(3-Chloro-2-fluorophenyl)-4-fluoro-7-(3-fluoropyridin-2-yl)-5-methyl-8-oxo-5,6,7,8-tetrahydro-2,7-naphthyridin-3-yl]amino}azetidine-1-carboxamide] was tested, and the Emax [1] was 31.3% and the EC50 was 87.2 nM.

For `CNC(=O)N1CC(Nc2ncc3c(c2F)[C@@](C)(c2cccc(Cl)c2F)CN(c2ncccc2F)C3=O)C1` [Example 20, 3-{[(5R)-5-(3-Chloro-2-fluorophenyl)-4-fluoro-7-(3-fluoropyridin-2-yl)-5-methyl-8-oxo-5,6,7,8-tetrahydro-2,7-naphthyridin-3-yl]amino}-N-methylazetidine-1-carboxamide], the Emax [1] was 43.1% and the EC50 was 23.9 nM.

Work on `Cn1cc(F)c(N2C[C@](C)(c3cccc(Cl)c3F)c3c(cnc(NC4CN(C(=O)N5C[C@@H]6C[C@H]5CO6)C4)c3F)C2=O)n1` [Example 21, (4R)-4-(3-chloro-2-fluorophenyl)-5-fluoro-2-(4-fluoro-1-methyl-1H-pyrazol-3-yl)-4-methyl-6-({1-[(1S,4S)-2-oxa-5-azabicyclo[2.2.1]heptane-5-carbonyl]azetidin-3-yl}amino)-3,4-dihydro-2,7-naphthyridin-1(2H)-one] yielded an Emax [1] of 142% and an EC50 of 39.8 nM.

With `C[C@]1(c2cccc(Cl)c2F)CN(c2ccc(CO)cn2)C(=O)c2cnc(NC3CN(C(=O)N4C[C@@H]5C[C@H]4CO5)C3)c(F)c21` [Example 22, (4R)-4-(3-Chloro-2-fluorophenyl)-5-fluoro-2-[5-(hydroxymethyl)pyridin-2-yl]-4-methyl-6-({1-[(1 S,4S)-2-oxa-5-azabicyclo[2.2.1]heptane-5-carbonyl]azetidin-3-yl}amino)-3,4-dihydro-2,7-naphthyridin-1(2H)-one] the Emax [1] was 136% and the EC50 was 44.7 nM.

Work on `CC1(c2cccc(F)c2F)CN(c2ccccc2)C(=O)c2cnc(NC3CN(C(=O)CN4CCCC4)C3)nc21` (stereo not drawn) [Example 33, 8-(2,3-Difluorophenyl)-8-methyl-6-phenyl-2-({1-[(pyrrolidin-1-γ1)acetyl]azetidin-3-yl}amino)-7,8-dihydropyrido[4,3-d]pyrimidin-5(6H)-one] yielded an Emax [1] of 104% and an EC50 of 906 nM.
